± gives the standard deviation of the averaged measurements.
Each test system was assayed with C[C@]1(O)C[C@@H](c2nc(-c3ccc4ccc(-c5ccccc5)nc4c3)c3c(N)nccn32)C1 [OSI-906] (assay: surviving fraction relative to DMSO-only wells; higher = less growth inhibition). Settings: 0.5 nM; exposure time: 5 days.
Method in brief: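 Viability values are CellTiter-Glo luminescence readings, given as surviving fraction against the median of DMSO-only wells. The readings were taken after 10 minutes at room temperature, following five days of continuous exposure to inhibitors at 0.5, 1, 5, 10, 50, 100, 500 and 1000 nM that began 24 hours after log-phase tumour cell lines were seeded at 250–500 cells per well in 384-well plates. Every line was screened three times and kept only if replicate Pearson r >0.7 and median Z' >0.3.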
MFM223 BREAST showed a surviving fraction of 0.716 ± 0.049.
With MG63 BONE the surviving fraction was 0.9333 ± 0.0045.
With MHM BONE the surviving fraction was 0.996 ± 0.021.
NCIH441 LUNG was tested, and the surviving fraction was 0.976 ± 0.058.
NOS1 BONE was tested, and the surviving fraction was 0.916 ± 0.13.
NY BONE was tested, and the surviving fraction was 0.9347 ± 0.009.
Test System OS25HAL BONE has a surviving fraction of 0.866 ± 0.066.
OSHN BONE gave a surviving fraction of 0.887 ± 0.024.
RDES SOFT TISSUE showed a surviving fraction of 0.836 ± 0.081.
SCC47 HEADNECK was tested, and the surviving fraction was 0.976 ± 0.025.
In the case of SCC90 HEADNECK, the surviving fraction is reported as 0.88 ± 0.033.
For SG27 HEADNECK, the surviving fraction was 1.1 ± 0.12.
Work on SG28 HEADNECK yielded a surviving fraction of 0.829 ± 0.16.
With SG31 HEADNECK the surviving fraction was 0.867 ± 0.15.
SG32 HEADNECK showed a surviving fraction of 0.714 ± 0.15.
SG43 HEADNECK gave a surviving fraction of 1.21 ± 0.074.
SIHA CERVIX showed a surviving fraction of 0.931 ± 0.067.
Work on SJSA1 BONE yielded a surviving fraction of 1.23 ± 0.051.
Work on SKBR3 BREAST yielded a surviving fraction of 0.752 ± 0.012.
SNU475 LIVER showed a surviving fraction of 0.89 ± 0.023.
SUM44 BREAST showed a surviving fraction of 0.844 ± 0.044.
SUM149.B1*.S BREAST showed a surviving fraction of 0.935 ± 0.025.
With SUM159 BREAST the surviving fraction was 0.9647 ± 0.0076.
SYO1 SYNOVIAL gave a surviving fraction of 0.795 ± 0.048.
With T47D BREAST the surviving fraction was 0.9222 ± 0.0086.
For U2OS BONE, the surviving fraction was 0.979 ± 0.038.
Work on VCAP PROSTATE yielded a surviving fraction of 0.908 ± 0.023.
In the case of VP229 BREAST, the surviving fraction is reported as 0.856 ± 0.095.
YAMATO SYNOVIAL was tested, and the surviving fraction was 0.866 ± 0.13.
In the case of ZR751 BREAST, the surviving fraction is reported as 0.893 ± 0.058.

Same assay, conditions: 1 nM; exposure time: 5 days
For MFM223 BREAST, the surviving fraction was 0.791 ± 0.1.
MG63 BONE gave a surviving fraction of 0.919 ± 0.025.
MHM BONE was tested, and the surviving fraction was 0.978 ± 0.026.
NCIH441 LUNG showed a surviving fraction of 1 ± 0.033.
With NOS1 BONE the surviving fraction was 0.944 ± 0.062.
In the case of NY BONE, the surviving fraction is reported as 0.9183 ± 0.0031.
For OS25HAL BONE, the surviving fraction was 0.892 ± 0.017.
Test System OSHN BONE has a surviving fraction of 0.912 ± 0.026.
With RDES SOFT TISSUE the surviving fraction was 0.818 ± 0.12.
Test System SCC47 HEADNECK has a surviving fraction of 0.952 ± 0.046.
In the case of SCC90 HEADNECK, the surviving fraction is reported as 0.822 ± 0.075.
In the case of SG27 HEADNECK, the surviving fraction is reported as 1.08 ± 0.064.
For SG28 HEADNECK, the surviving fraction was 0.78 ± 0.098.
For SG31 HEADNECK, the surviving fraction was 0.994 ± 0.057.
For SG32 HEADNECK, the surviving fraction was 0.689 ± 0.0095.
Test System SG43 HEADNECK has a surviving fraction of 1.18 ± 0.13.
In the case of SIHA CERVIX, the surviving fraction is reported as 0.888 ± 0.012.
SJSA1 BONE gave a surviving fraction of 1.22 ± 0.075.
In the case of SKBR3 BREAST, the surviving fraction is reported as 0.765 ± 0.027.
Work on SNU475 LIVER yielded a surviving fraction of 0.887 ± 0.037.
SUM44 BREAST showed a surviving fraction of 0.878 ± 0.1.
SUM149.B1*.S BREAST showed a surviving fraction of 0.927 ± 0.032.
SUM159 BREAST was tested, and the surviving fraction was 0.948 ± 0.021.
Test System SYO1 SYNOVIAL has a surviving fraction of 0.814 ± 0.044.
T47D BREAST showed a surviving fraction of 0.933 ± 0.038.
Test System U2OS BONE has a surviving fraction of 0.949 ± 0.031.
VCAP PROSTATE gave a surviving fraction of 0.867 ± 0.039.
VP229 BREAST was tested, and the surviving fraction was 0.825 ± 0.078.
YAMATO SYNOVIAL was tested, and the surviving fraction was 0.936 ± 0.04.
ZR751 BREAST gave a surviving fraction of 0.857 ± 0.08.

Same assay, conditions: 5 nM; exposure time: 5 days
In the case of MFM223 BREAST, the surviving fraction is reported as 0.768 ± 0.092.
Test System MG63 BONE has a surviving fraction of 0.989 ± 0.033.
MHM BONE showed a surviving fraction of 1.03 ± 0.025.
NCIH441 LUNG showed a surviving fraction of 0.993 ± 0.07.
Work on NOS1 BONE yielded a surviving fraction of 1.16 ± 0.49.
Work on NY BONE yielded a surviving fraction of 1.027 ± 0.01.
OS25HAL BONE gave a surviving fraction of 0.894 ± 0.025.
OSHN BONE was tested, and the surviving fraction was 0.902 ± 0.028.
In the case of RDES SOFT TISSUE, the surviving fraction is reported as 0.77 ± 0.14.
SCC47 HEADNECK gave a surviving fraction of 1.04 ± 0.069.
SCC90 HEADNECK showed a surviving fraction of 0.89 ± 0.096.
In the case of SG27 HEADNECK, the surviving fraction is reported as 0.916 ± 0.071.
SG28 HEADNECK showed a surviving fraction of 0.769 ± 0.16.
In the case of SG31 HEADNECK, the surviving fraction is reported as 0.84 ± 0.045.
Work on SG32 HEADNECK yielded a surviving fraction of 0.767 ± 0.13.
SG43 HEADNECK was tested, and the surviving fraction was 0.829 ± 0.025.
In the case of SIHA CERVIX, the surviving fraction is reported as 0.992 ± 0.11.
Test System SJSA1 BONE has a surviving fraction of 1.17 ± 0.2.
Work on SKBR3 BREAST yielded a surviving fraction of 0.814 ± 0.11.
With SNU475 LIVER the surviving fraction was 0.887 ± 0.012.
SUM44 BREAST showed a surviving fraction of 0.948 ± 0.047.
Test System SUM149.B1*.S BREAST has a surviving fraction of 0.92 ± 0.041.
SUM159 BREAST showed a surviving fraction of 0.964 ± 0.021.
For SYO1 SYNOVIAL, the surviving fraction was 0.832 ± 0.023.
With T47D BREAST the surviving fraction was 0.9888 ± 0.0092.
Work on U2OS BONE yielded a surviving fraction of 0.958 ± 0.013.
Work on VCAP PROSTATE yielded a surviving fraction of 0.962 ± 0.028.
Test System VP229 BREAST has a surviving fraction of 0.874 ± 0.039.
YAMATO SYNOVIAL showed a surviving fraction of 0.995 ± 0.069.
With ZR751 BREAST the surviving fraction was 0.879 ± 0.1.

Same assay, conditions: 10 nM; exposure time: 5 days
MFM223 BREAST showed a surviving fraction of 0.811 ± 0.15.
Work on MG63 BONE yielded a surviving fraction of 0.963 ± 0.012.
For MHM BONE, the surviving fraction was 0.999 ± 0.032.
With NCIH441 LUNG the surviving fraction was 0.969 ± 0.03.
NOS1 BONE gave a surviving fraction of 1 ± 0.15.
NY BONE gave a surviving fraction of 0.96 ± 0.011.
OS25HAL BONE was tested, and the surviving fraction was 0.871 ± 0.017.
OSHN BONE gave a surviving fraction of 0.884 ± 0.046.
For RDES SOFT TISSUE, the surviving fraction was 0.733 ± 0.18.
SCC47 HEADNECK was tested, and the surviving fraction was 1.02 ± 0.12.
Work on SCC90 HEADNECK yielded a surviving fraction of 0.883 ± 0.026.
SG27 HEADNECK was tested, and the surviving fraction was 0.966 ± 0.059.
SG28 HEADNECK was tested, and the surviving fraction was 0.792 ± 0.02.
Test System SG31 HEADNECK has a surviving fraction of 0.985 ± 0.056.
SG32 HEADNECK showed a surviving fraction of 0.632 ± 0.057.
SG43 HEADNECK gave a surviving fraction of 0.987 ± 0.12.
For SIHA CERVIX, the surviving fraction was 0.886 ± 0.056.
For SJSA1 BONE, the surviving fraction was 1.21 ± 0.11.
In the case of SKBR3 BREAST, the surviving fraction is reported as 0.841 ± 0.0095.
SNU475 LIVER showed a surviving fraction of 0.869 ± 0.054.
For SUM44 BREAST, the surviving fraction was 0.8813 ± 0.0072.
SUM149.B1*.S BREAST showed a surviving fraction of 0.926 ± 0.025.
SUM159 BREAST showed a surviving fraction of 0.944 ± 0.036.
For SYO1 SYNOVIAL, the surviving fraction was 0.824 ± 0.058.
Work on T47D BREAST yielded a surviving fraction of 0.917 ± 0.02.
Test System U2OS BONE has a surviving fraction of 0.939 ± 0.021.
For VCAP PROSTATE, the surviving fraction was 0.999 ± 0.14.
VP229 BREAST showed a surviving fraction of 0.9 ± 0.038.
Work on YAMATO SYNOVIAL yielded a surviving fraction of 0.986 ± 0.082.
ZR751 BREAST showed a surviving fraction of 0.847 ± 0.069.

— the supplement of paper PMC6045584
